Test results as given in the supplement of paper PMC10307832.

Tests used:
Experiment in all cases: relative viability (nuclei count vs DMSO), 5 days (fraction); higher = more cells survive
Olaparib + Navitoclax = compound: O=C(c1cc(Cc2n[nH]c(=O)c3ccccc23)ccc1F)N1CCN(C(=O)C2CC2)CC1 [Olaparib] + CC1(C)CCC(c2ccc(Cl)cc2)=C(CN2CCN(c3ccc(C(=O)NS(=O)(=O)c4ccc(N[C@H](CCN5CCOCC5)CSc5ccccc5)c(S(=O)(=O)C(F)(F)F)c4)cc3)CC2)C1 [Navitoclax] (partner 0.5 µM)
Outline: (§1)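 Lung cancer cell lines were seeded in 1536-well plates and dosed by pin tool the next day, with either a single drug or a fixed anchor-drug dose combined with five library-drug doses (not always all listed) spaced in √10 steps. Five days later, one step fixed the cells and stained their nuclei (final 0.05% Triton X-100, 1% formaldehyde, 1 ug/ml Hoechst), and nuclei were counted on 4× images. Relative viability is the nuclei count in treated wells divided by the count in vehicle wells, and each value is the median of duplicate plates.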

Crizotinib + OSI-027 = compound: C[C@@H](Oc1cc(-c2cnn(C3CCNCC3)c2)cnc1N)c1c(Cl)ccc(F)c1Cl [Crizotinib] + COc1cccc2cc(-c3nc([C@H]4CC[C@H](C(=O)O)CC4)n4ncnc(N)c34)[nH]c12 [OSI-027] (partner 0.5 µM)
Outline: as §1

Olaparib + Lapatinib = compound: O=C(c1cc(Cc2n[nH]c(=O)c3ccccc23)ccc1F)N1CCN(C(=O)C2CC2)CC1 [Olaparib] + CS(=O)(=O)CCNCc1ccc(-c2ccc3ncnc(Nc4ccc(OCc5cccc(F)c5)c(Cl)c4)c3c2)o1 [Lapatinib] (partner 2 µM)
Outline: as §1

Olaparib + Dasatinib = compound: O=C(c1cc(Cc2n[nH]c(=O)c3ccccc23)ccc1F)N1CCN(C(=O)C2CC2)CC1 [Olaparib] + Cc1nc(Nc2ncc(C(=O)Nc3c(C)cccc3Cl)s2)cc(N2CCN(CCO)CC2)n1 [Dasatinib] (partner 0.075 µM)
Outline: as §1

| Cell Line | relative viability (Olaparib + Navitoclax; first compound 0.08 µM) | relative viability (Olaparib + Navitoclax; first compound 0.253 µM) | relative viability (Olaparib + Navitoclax; first compound 2.53 µM) | relative viability (Olaparib + Navitoclax; first compound 8 µM) | relative viability (Crizotinib + OSI-027; first compound 0.01 µM) | relative viability (Crizotinib + OSI-027; first compound 0.03162 µM) | relative viability (Crizotinib + OSI-027; first compound 0.1 µM) | relative viability (Crizotinib + OSI-027; first compound 0.3162 µM) | relative viability (Crizotinib + OSI-027; first compound 1 µM) | relative viability (Olaparib + Lapatinib; first compound 0.08 µM) | relative viability (Olaparib + Lapatinib; first compound 0.253 µM) | relative viability (Olaparib + Lapatinib; first compound 2.53 µM) | relative viability (Olaparib + Lapatinib; first compound 8 µM) | relative viability (Olaparib + Dasatinib; first compound 0.08 µM) | relative viability (Olaparib + Dasatinib; first compound 0.253 µM) | relative viability (Olaparib + Dasatinib; first compound 2.53 µM) | relative viability (Olaparib + Dasatinib; first compound 8 µM) |
| --- | --- | --- | --- | --- | --- | --- | --- | --- | --- | --- | --- | --- | --- | --- | --- | --- | --- |
| NCI-H322M | 1.34 | 1.07 | 1.23 | 1.01 | 0.519 | 0.521 | 0.478 | 0.535 | 0.502 | 0.576 | 0.597 | 0.599 | 0.491 | 0.251 | 0.231 | 0.248 | 0.252 |
| NCI-H358 |  |  |  |  | 0.628 | 0.897 | 0.673 | 0.664 | 0.772 | 0.388 | 0.434 | 0.44 | 0.426 | 0.152 | 0.181 | 0.167 | 0.146 |
| NCI-H441 |  | 0.406 | 0.706 | 0.582 | 0.569 | 0.553 | 0.601 |  | 0.603 |  |  |  |  | 0.818 | 0.542 | 0.651 | 0.589 |
| NCI-H460 | 1.18 | 0.94 | 0.815 | 0.424 | 0.536 | 0.931 | 0.479 | 0.6 | 0.708 | 1.28 | 0.874 | 0.679 | 0.172 | 0.471 | 0.464 | 0.32 | 0.178 |
| NCI-H522 |  |  |  |  | 0.672 | 0.718 | 0.702 | 0.739 | 0.701 |  |  |  |  | 0.913 | 0.884 | 0.846 | 0.782 |
| NCI-H650 |  |  |  |  | 0.587 | 0.508 | 0.544 | 0.423 | 0.59 | 1.05 | 0.834 | 0.903 | 0.742 | 0.478 | 0.428 | 0.424 | 0.372 |
| NCI-H661 |  |  |  |  | 0.606 | 0.74 | 0.771 | 0.711 | 0.663 | 0.638 | 0.443 | 0.426 | 0.543 | 0.801 | 0.769 | 0.7 | 0.715 |
| NCI-H1299 | 1.07 | 0.995 | 1.04 | 0.944 |  |  |  |  |  | 1.01 | 0.927 | 0.949 | 0.963 |  |  |  |  |
| NCI-H1563 |  |  |  |  | 0.705 | 0.766 | 0.753 | 0.727 | 0.766 | 0.975 | 0.999 | 0.992 | 0.92 | 0.485 | 0.516 | 0.465 | 0.42 |
| NCI-H1623 |  |  |  |  | 0.439 | 0.435 | 0.454 | 0.378 | 0.4 |  |  |  |  | 0.568 | 0.504 | 0.6 | 0.494 |
| NCI-H1648 |  |  |  |  | 0.274 | 0.265 |  | 0.224 | 0.257 |  |  |  |  |  |  |  |  |
| NCI-H1703 | 1.29 | 1.06 | 1.05 | 1.43 |  |  |  |  |  | 1.63 | 1.03 | 1.29 | 1.04 |  |  |  |  |
| NCI-H2342 |  |  |  |  | 0.652 | 0.613 | 0.623 | 0.509 | 0.547 |  |  |  |  | 0.293 | 0.262 | 0.312 | 0.293 |
| SW 900 |  |  |  |  | 0.499 | 0.507 | 0.581 | 0.509 | 0.568 |  |  |  |  | 0.57 | 0.815 | 0.624 | 0.615 |
